Measurements as given in patent US20050244335A1, “Methods and compositions related to increasing antitumor activity of chemotherapeutic agents” (priority 2004, published 2005).
Like-named read-outs stand apart in the source and are kept apart here.

Experiments:
[1] = test system: human cancer xenografts; test: Six murine-human cancer xenograft models overall: efficacy and toxicity
Experimental: (§4) Human cancer xenograft models were established using the methods reported previously (26-29). When confluence reached 80%, cultured LS174T, MCF-7, MDA-MB-468, U87-MG, A549 and H1299 cells were harvested from the monolayer cultures, washed with the above indicated serum-free medium and resuspended in the same medium with Matrigel® basement membrane matrix at a 3:1 ratio, and then injected subcutaneously (s.c.) (5×10^6 cells, total volume 0.2 mL) into the left inguinal area of the nude mice. The animals were monitored for activity, physical condition, determination of body weight, and measurement of tumor growth. Tumor growth was determined by caliper measurement in two perpendicular diameters of the implant every other day. Tumor weight (in g) was calculated by the formula, 1/2a×b^2 where “a” is the long diameter and “b” is the short diameter (in cm).
(§5) Nude mice bearing human cancer xenografts were randomly divided into various treatment and control groups (5 mice/group). In treatment groups, animals were pre-treated with DEX subcutaneously (s.c., 0.1 mg/day for 5 days, Day −4-0) or saline (as controls). Carboplatin was administered intraperitoneally (i.p.) at a single dose of 120 mg/kg (360 mg/m^2) on day 0.
(§6) The antitumor activity (tumor mass) and peripheral blood counts were expressed as mean and standard deviations and the significance of differences were analyzed by ANOVA.
(§7) When mean tumor mass reached 44-68 mg, animals were treated with s.c. DEX at a dose of 0.1 mg/day for 5 days, followed by chemotherapy.

[2] = Pharmacokinetics and tissue distribution of gemcitabine in CD-1 mice; type: in vivo; conditions: gemcitabine 160 mg/kg iv
Experimental: At various times (5, 15, and 30 min, 1, 2, 4, 8, and 24 hr after drug dosing), plasma, bone marrow, and tissues including liver, kidneys, heart, lungs, spleen, brain and tumor were collected and treated as described above.
In brief, plasma samples (50 μL) were mixed with […] of scintillation solvent (Beckman) to determine total radioactivity. Tissue homogenates (50-200 μL) were mixed with 200 μL solubilizer (TS-2) overnight, neutralized with 400 μL of 0.3% acetic acid, and then mixed with scintillation solvent (5 mL) to quantitate the total radioactivity.
(§1) The significance of the differences among treated groups and controls were analyzed by ANOVA.

[3] = Pharmacokinetics of gemcitabine in nude mice bearing H1299 xenografts; type: in vivo; conditions: for AUC / CL / Cmax / Vss: nude mice bearing H1299 xenografts, gemcitabine 160 mg/kg iv
Experimental: Female nude mice bearing human lung cancer H1299 xenograft were used (3 mice for each time point). […] Bone marrow cells were harvested by using the same method described above. […] In brief, plasma samples (50 μL) were mixed with 5 mL of scintillation solvent (Beckman) to determine total radioactivity. […] Data and Statistical Analysis.

[4] = test system: NSCLC patients; test: Clinical trial of Dex pretreatment with carboplatin and gemcitabine in stage 4 NSCLC patients; type: in vivo, human; conditions: for AGC nadir ratio (course 2 ÷ course 1), M±SE: 4 days prior to and day of chemotherapy
Experimental: Patients were randomized at a 1:2:2 ratio to receive no Dex (Cohort 1), or Dex 8 mg bid (Cohort 2) or 16 mg bid (Cohort 3), 4 days prior to and the day of each chemotherapy treatment. Dex was given only in courses 2, 3, and 4 so that toxicities between course 1 vs. course 2 comparisons could be made.

[5] = test system: human glioma U87-MG xenografts; conditions: U87MG model
Experimental: Cell Culture. The cell lines of human cancers (colon LS174T, breast MCF-7 and MDA-MB-468, and lung A549) and glioma (U87-MG) were obtained from American Type Culture Collection (Rockville, Md.) and cultured according to their instruction. LS174T cells were cultured in modified Earle's medium with 0.1 mM nonessential amino acids and Earle's balanced salt solution containing 10% FBS. MCF-7 cells were grown in modified Earle's medium containing 10% FBS, 1 mM non-essential amino acids and Earle's balanced salt solution, 1 mM sodium pyruvate and 10 mg/L bovine insulin. MDA-MB-468 cells were grown in Dulbecco's modified Eagle's/F-12 Ham's medium (1:1 mixture) containing 10% FBS. […]
Animal Tumor Models. […] The animals were monitored for activity, physical condition, determination of body weight, and measurement of tumor growth. Tumor growth was determined by caliper measurement in two perpendicular diameters of the implant every other day. Tumor weight (in g) was calculated by the formula, 1/2a×b^2 where “a” is the long diameter and “b” is the short diameter (in cm). […]
Data and Statistical Analysis. The antitumor activity (tumor mass) and peripheral blood counts were expressed as mean and standard deviations and the significance of differences were analyzed by ANOVA. […]

[6] = test system: human colon cancer LS174T xenografts; test: In vivo chemotherapy, colon cancer LS174T xenograft model in nude mice; conditions: DEX s.c. 0.1 mg/day 5 days, carboplatin 120 mg/kg i.p. day 0
Excerpt: (§2) Cell Culture. […] All media contained 1% penicillin-streptomycin.
(§3) Data and Statistical Analysis.

[7] = test system: CD-1 mice; type: in vivo; conditions: for survival rate: carboplatin 600 mg/m^2 (200 mg/kg) i.p., 14-day
Experimental: Male CD-1 mice, randomly divided into multiple treatment and control groups (10 mice/group), were given DEX by subcutaneous (s.c.) injection at doses of 0.01, 0.05, 0.1, 0.3 mg/mouse/day or saline (as controls) for 5 days prior to (day −4 to 0) or after (day 0 to 4) a single intraperitoneal (i.p.) injection of carboplatin (600 mg/m^2 or 200 mg/kg) on day 0. Animals were monitored daily for activity, physical condition, body weight and 14-day survival rates.
as §1

[8] = test system: CD-1 mice
Experimental: sing a protocol similar to the above survival study, the effects of DEX on chemotherapy-induced bone marrow toxicity were studied in male CD-1 mice. DEX (s.c., 0.1 mg/mouse/day for 5 days) was given prior to (day −4-0) or after (day 0 to 4) a single i.p. dose of carboplatin (600 mg/m^2 or 200 mg/kg). On days −4, 0, 3, 7, 14, peripheral blood samples (60 μL) were obtained from postorbital venous plexus using a microcapillary tube coated with 5% ethylenediaminetetraacetic acid and cell counts were obtained using a Coulter counter. Wright's stained peripheral blood smears were examined by light microscopy and the percentage of lymphocytes, granulocytes and monocytes were recorded.
as §1
To examine possible mechanisms responsible for reduced mortality in mice pre-treated with DEX, peripheral blood counts before and after chemotherapy were determined. […] The same experimental design was used to examine the dose-schedule effects of dexamethasone prevention of neutropenia.

[9] = test system: human breast cancer MCF-7 xenografts; test: In vivo chemotherapy, breast cancer MCF-7 xenograft model in nude mice; conditions: MCF-7 model
Excerpt: as §2, §3

[10] = test system: human lung cancer H1299 xenografts; test: In vivo chemotherapy, lung cancer H1299 xenograft model in nude mice
Excerpt: as §2, §3

[11] = test system: human cancer xenografts; conditions: in vivo
Experimental: as §4, §5, §6, §7

[12] = test system: human lung cancer A549 xenografts; conditions: A549 model
Excerpt: as §2, §3

SMILES: Nc1ccn([C@@H]2O[C@H](CO)[C@@H](O)C2(F)F)c(=O)n1 [gemcitabine]
- death ([1]; nude mice, carboplatin 120 mg/kg, gemcitabine 160 mg/kg i.p.): no death occurred
- AUC ([2]; bone marrow, DEX (+)): 7.03 µg·h/mL
- CL ([2]; bone marrow, DEX (+)): 22.76 mL/g/h
- Cmax ([2]; bone marrow, DEX (+)): 15.82 µg/mL
- Vss ([2]; bone marrow, DEX (+)): 10.12 mL/g
- AUC ([2]; bone marrow, DEX (−)): 18.35 µg·h/mL
- CL ([2]; bone marrow, DEX (−)): 8.72 mL/g/h
- Cmax ([2]; bone marrow, DEX (−)): 16.12 µg/mL
- Vss ([2]; bone marrow, DEX (−)): 9.93 mL/g
- AUC ([2]; liver, DEX (+)): 124.80 µg·h/mL
- CL ([2]; liver, DEX (+)): 1.28 mL/g/h
- Cmax ([2]; liver, DEX (+)): 166.94 µg/mL
- Vss ([2]; liver, DEX (+)): 0.96 mL/g
- AUC ([2]; liver, DEX (−)): 123.68 µg·h/mL
- CL ([2]; liver, DEX (−)): 1.29 mL/g/h
- Cmax ([2]; liver, DEX (−)): 158.43 µg/mL
- Vss ([2]; liver, DEX (−)): 1.01 mL/g
- AUC ([2]; plasma, DEX (+)): 319.96 µg·h/mL
- CL ([2]; plasma, DEX (+)): 0.50 mL/g/h
- Cmax ([2]; plasma, DEX (+)): 253.68 µg/mL
- Vss ([2]; plasma, DEX (+)): 10.81 mL/g
- AUC ([2]; plasma, DEX (−)): 552.32 µg·h/mL
- CL ([2]; plasma, DEX (−)): 0.29 mL/g/h
- Cmax ([2]; plasma, DEX (−)): 264.13 µg/mL
- Vss ([2]; plasma, DEX (−)): 16.64 mL/g
- AUC ([2]; spleen, DEX (+)): 135.50 µg·h/mL
- CL ([2]; spleen, DEX (+)): 1.18 mL/g/h
- Cmax ([2]; spleen, DEX (+)): 193.29 µg/mL
- Vss ([2]; spleen, DEX (+)): 0.83 mL/g
- AUC ([2]; spleen, DEX (−)): 375.21 µg·h/mL
- CL ([2]; spleen, DEX (−)): 0.43 mL/g/h
- Cmax ([2]; spleen, DEX (−)): 196.84 µg/mL
- Vss ([2]; spleen, DEX (−)): 0.81 mL/g
- increase in tumor AUC by DEX pretreatment ([3]; H1299 nude mice): 60%
- AUC ([3]; bone marrow, DEX (+)): 16.41 µg·h/mL
- CL ([3]; bone marrow, DEX (+)): 9.75 mL/g/h
- Cmax ([3]; bone marrow, DEX (+)): 14.36 µg/mL
- Vss ([3]; bone marrow, DEX (+)): 11.14 mL/g
- AUC ([3]; bone marrow, DEX (−)): 21.10 µg·h/mL
- CL ([3]; bone marrow, DEX (−)): 7.58 mL/g/h
- Cmax ([3]; bone marrow, DEX (−)): 18.53 µg/mL
- Vss ([3]; bone marrow, DEX (−)): 8.64 mL/g
- AUC ([3]; liver, DEX (+)): 107.85 µg·h/mL
- CL ([3]; liver, DEX (+)): 1.48 mL/g/h
- Cmax ([3]; liver, DEX (+)): 157.46 µg/mL
- Vss ([3]; liver, DEX (+)): 1.02 mL/g
- AUC ([3]; liver, DEX (−)): 123.27 µg·h/mL
- CL ([3]; liver, DEX (−)): 1.30 mL/g/h
- Cmax ([3]; liver, DEX (−)): 171.80 µg/mL
- Vss ([3]; liver, DEX (−)): 0.93 mL/g
- AUC ([3]; plasma, DEX (+)): 322.43 µg·h/mL
- CL ([3]; plasma, DEX (+)): 0.50 mL/g/h
- Cmax ([3]; plasma, DEX (+)): 237.16 µg/mL
- Vss ([3]; plasma, DEX (+)): 9.90 mL/g
- AUC ([3]; plasma, DEX (−)): 277.38 µg·h/mL
- CL ([3]; plasma, DEX (−)): 0.58 mL/g/h
- Cmax ([3]; plasma, DEX (−)): 286.72 µg/mL
- Vss ([3]; plasma, DEX (−)): 5.96 mL/g
- AUC ([3]; spleen, DEX (+)): 505.40 µg·h/mL
- CL ([3]; spleen, DEX (+)): 0.32 mL/g/h
- Cmax ([3]; spleen, DEX (+)): 179.42 µg/mL
- Vss ([3]; spleen, DEX (+)): 0.89 mL/g
- AUC ([3]; spleen, DEX (−)): 909.92 µg·h/mL
- CL ([3]; spleen, DEX (−)): 0.18 mL/g/h
- Cmax ([3]; spleen, DEX (−)): 221.99 µg/mL
- Vss ([3]; spleen, DEX (−)): 0.72 mL/g
- AUC ([3]; tumor, DEX (+)): 674.44 µg·h/mL
- CL ([3]; tumor, DEX (+)): 0.23 mL/g/h
- Cmax ([3]; tumor, DEX (+)): 46.66 µg/mL
- Vss ([3]; tumor, DEX (+)): 12.72 mL/g
- AUC ([3]; tumor, DEX (−)): 434.55 µg·h/mL
- CL ([3]; tumor, DEX (−)): 0.37 mL/g/h
- Cmax ([3]; tumor, DEX (−)): 49.15 µg/mL
- Vss ([3]; tumor, DEX (−)): 9.01 mL/g

SMILES: C[C@@H]1C[C@H]2[C@@H]3CCC4=CC(=O)C=C[C@]4(C)[C@@]3(F)[C@@H](O)C[C@]2(C)[C@@]1(O)C(=O)CO [DEX, dexamethasone]
- Responses: number of PD ([4]; Cohort 2 (n=8), Dex 8 mg bid): 1
- Responses: number of PR ([4]; Cohort 2 (n=8), Dex 8 mg bid): 7
- platelet nadir ratio (course 2 ÷ course 1), M±SE ([4]; Cohort 2: Dex 8 mg bid): 2.68±0.6
- AGC nadir ratio (course 2 ÷ course 1), M±SE ([4]; Cohort 2: Dex 8 mg bid): 2.68±0.8
- Responses: number of PD ([4]; Cohort 3 (n=10), Dex 16 mg bid): 1
- Responses: number of PR ([4]; Cohort 3 (n=10), Dex 16 mg bid): 8
- Responses: number of SD ([4]; Cohort 3 (n=10), Dex 16 mg bid): 1
- platelet nadir ratio (course 2 ÷ course 1), M±SE ([4]; Cohort 3: Dex 16 mg bid): 2.72±0.6
- AGC nadir ratio (course 2 ÷ course 1), M±SE ([4]; Cohort 3: Dex 16 mg bid): 2.94±0.7
- reduction of toxicity, data trends ([4]; Dex 16 mg): effective in reducing toxicity
- Dex DLTs ([4]; NSCLC patients, Dex 8 or 16 mg bid): No Dex DLTs were observed
- increase of efficacy of carboplatin, gemcitabine or combination by DEX pretreatment ([1]; all xenograft models tested): 2-4 fold
- increase of therapeutic effectiveness of combination therapy of carboplatin and gemcitabine by DEX pretreatment [5]: 130%
- increase of therapeutic effect of carboplatin by DEX pretreatment [6]: approximately 80%
- death ([7]; CD-1 mice, DEX alone s.c. 0.01-0.3 mg/mouse/day for 5 days): No death occurred
- survival rate ([7]; CD-1 mice, DEX pretreatment 0.01 mg/mouse/day for 5 days): 40%
- survival rate ([7]; CD-1 mice, DEX pretreatment s.c. 0.1 mg/mouse/day for 5 days): 80%
- mortality of treated animals ([7]; combination treatment with carboplatin and gemcitabine, DEX pretreatment): reduced the mortality of treated animals
- optimal dose for prevention of neutropenia ([8]; CD-1 mice, DEX before carboplatin 360 mg/m^2): 0.1 mg/kg
- peripheral blood counts, effect of dexamethasone ([8]; mouse, in vivo): induction of transient granulocytosis and lymphopenia
- increase of efficacy of carboplatin by DEX pretreatment [9]: 66%
- increase of efficacy of gemcitabine by DEX pretreatment [9]: 60%
- increase of anticancer effects of carboplatin by DEX pretreatment [10]: 70%
- effect of DEX pretreatment on toxicity profiles of the two chemotherapeutic agents [11]: no effect on toxicity profiles
- increase of therapeutic effectiveness of carboplatin by DEX pretreatment [12]: 50%
- increase of therapeutic effectiveness of gemcitabine by DEX pretreatment [12]: 60%
